Assay results as given in the supplement of paper PMC13380429.

Tests used:
Details in all cases: 72 h
HepG2 [1] = test: relative viability EC50 (midpoint between 100% and the lowest measured viability); higher = less toxic
Caco-2 [2] = test: as above
Vero E6 [3] = test: as above
U2OS [4] = test: as above
Calu-3 [5] = test: as above
HepG2 [6] = test: drug sensitivity score (DSS) for viability; higher = more toxic; extreme values may be limits of the assay
Caco-2 [7] = test: as above
Vero E6 [8] = test: as above
U2OS [9] = test: as above
Calu-3 [10] = test: as above
HepG2 [11] = test: cell viability relative to DMSO; higher = less toxic
Caco-2 [12] = test: as above
Vero E6 [13] = test: as above
U2OS [14] = test: as above
Calu-3 [15] = test: as above

| SMILES | relative viability EC50 (HepG2 [1]) [µM] | relative viability EC50 (Caco-2 [2]) [µM] | relative viability EC50 (Vero E6 [3]) [µM] | relative viability EC50 (U2OS [4]) [µM] | relative viability EC50 (Calu-3 [5]) [µM] | drug sensitivity score (HepG2 [6]) | drug sensitivity score (Caco-2 [7]) | drug sensitivity score (Vero E6 [8]) | drug sensitivity score (U2OS [9]) | drug sensitivity score (Calu-3 [10]) | cell viability (HepG2 [11]; 1 nM) [%] | cell viability (HepG2 [11]; 10 nM) [%] | cell viability (HepG2 [11]; 100 nM) [%] | cell viability (HepG2 [11]; 1000 nM) [%] | cell viability (HepG2 [11]; 10000 nM) [%] | cell viability (Caco-2 [12]; 1 nM) [%] | cell viability (Caco-2 [12]; 10 nM) [%] | cell viability (Caco-2 [12]; 100 nM) [%] | cell viability (Caco-2 [12]; 1000 nM) [%] | cell viability (Caco-2 [12]; 10000 nM) [%] | cell viability (Vero E6 [13]; 1 nM) [%] | cell viability (Vero E6 [13]; 10 nM) [%] | cell viability (Vero E6 [13]; 100 nM) [%] | cell viability (Vero E6 [13]; 1000 nM) [%] | cell viability (Vero E6 [13]; 10000 nM) [%] | cell viability (U2OS [14]; 1 nM) [%] | cell viability (U2OS [14]; 10 nM) [%] | cell viability (U2OS [14]; 100 nM) [%] | cell viability (U2OS [14]; 1000 nM) [%] | cell viability (U2OS [14]; 10000 nM) [%] | cell viability (Calu-3 [15]; 1 nM) [%] | cell viability (Calu-3 [15]; 10 nM) [%] | cell viability (Calu-3 [15]; 100 nM) [%] | cell viability (Calu-3 [15]; 1000 nM) [%] | cell viability (Calu-3 [15]; 10000 nM) [%] |
| --- | --- | --- | --- | --- | --- | --- | --- | --- | --- | --- | --- | --- | --- | --- | --- | --- | --- | --- | --- | --- | --- | --- | --- | --- | --- | --- | --- | --- | --- | --- | --- | --- | --- | --- | --- |
| O=S(=O)(O)CCSSCCS(=O)(=O)O [dimesna] | > 10 | > 10 | > 10 | > 10 | > 10 | 0 | 0 | 0 | 0 | 1.4 | 94.6 | 98.8 | 102 | 98.7 | 97.7 | 95.7 | 99.5 | 101 | 98.5 | 92.5 | 101 | 108 | 104 | 98.5 | 100 | 104 | 98.7 | 103 | 104 | 101 | 96.8 | 96.3 | 85.7 | 90.7 | 86.2 |
| COc1cc(C2Oc3cc([C@H]4Oc5cc(O)cc(O)c5C(=O)[C@@H]4O)ccc3OC2CO)ccc1O (stereo not given in full) [silibinin] | > 10 | > 10 | > 10 | > 10 | > 10 | 0 | 0 | 0 | 0 | 0 | 100 | 97.8 | 101 | 91.1 | 93.1 | 103 | 102 | 93 | 104 | 100 | 99.1 | 106 | 101 | 103 | 99.2 | 96 | 103 | 95.8 | 98.9 | 93.6 | 99.9 | 108 | 92.6 | 98.6 | 99.3 |
| Nc1c(-c2cccc(C(F)(F)F)c2)nsc1C(=O)O [amflutizole] | > 10 | > 10 | > 10 | > 10 | > 10 | 0 | 0 | 0 | 0 | 0 | 97.1 | 100 | 92.1 | 108 | 96.9 | 96.2 | 96.6 | 99.1 | 99.1 | 107 | 96.8 | 97.8 | 97.7 | 99.1 | 113 | 101 | 99.5 | 103 | 96.9 | 98.1 | 104 | 94.1 | 104 | 97 | 104 |
| CN[C@@H](C)C(=O)N[C@H](C(=O)N1CCC[C@H]1C(=O)Nc1sc(-c2ncco2)nc1-c1ccccc1)C1CCCCC1 [CUDC-427] | > 10 | > 10 | > 10 | > 10 | > 10 | 0 | 0 | 0 | 0 | 0.1 | 111 | 91.5 | 96.3 | 90 | 95.2 | 98.1 | 101 | 98.5 | 109 | 99.7 | 94.2 | 96.6 | 105 | 105 | 111 | 98 | 99.9 | 99.2 | 108 | 92.7 | 96.6 | 107 | 86.5 | 102 | 85.6 |
| OC[C@H]1O[C@H](O)C[C@@H](O)[C@@H]1O [2-deoxyglucose] | > 10 | > 10 | > 10 | > 10 | > 10 | 0 | 0 | 0 | 0 | 0 | 93.2 | 96 | 97.3 | 106 | 97.4 | 102 | 66.9 | 105 | 86.9 | 101 | 93.4 | 102 | 90.6 | 100 | 110 | 100 | 102 | 101 | 99.4 | 98 | 108 | 98.9 | 111 | 100 | 95.5 |
| C[C@@H]1O[C@@H](O[C@@H]2[C@@H](O)[C@H](OCCc3ccc(O)c(O)c3)O[C@H](CO)[C@H]2OC(=O)/C=C/c2ccc(O)c(O)c2)[C@H](O)[C@H](O)[C@H]1O [verbascoside] | > 10 | > 10 | > 10 | > 10 | > 10 | 0 | 0 | 0 | 0 | 0 | 95.3 | 102 | 101 | 106 | 104 | 96.4 | 89.7 | 97.8 | 99.8 | 96.9 | 98.9 | 99.8 | 94.4 | 101 | 104 | 97.9 | 100 | 96.5 | 96.8 | 93.6 | 98.6 | 93.3 | 106 | 105 | 97.1 |
| Oc1ccc(OCc2ccccc2)cc1 [monobenzone] | > 10 | > 10 | > 10 | > 10 | > 10 | 0 | 0 | 0 | 0 | 0 | 91.6 | 94.9 | 109 | 103 | 90.2 | 99.2 | 92.6 | 103 | 107 | 88.3 | 95.8 | 97.4 | 97.3 | 100 | 100 | 107 | 96.9 | 94.9 | 102 | 110 | 97.5 | 95.5 | 94.6 | 98.9 | 94.5 |
